# Results: US5250517A (Hoffmann-La Roche Inc., priority 1987, dated 1993)
# Where a SMILES comes first, the peptide text is derived from it. [ ]: non-standard residue; d: D form. The star is where a group is joined. X1 = C=C[C@@H](CC(O)[C@H](CC1CCCCC1)N*)C(C)C; Boc = CC(C)(C)OC(=O)*
# Target: T1, human renin (Homo sapiens, UniProt P00797)
# T1 sequence (P00797 67-406): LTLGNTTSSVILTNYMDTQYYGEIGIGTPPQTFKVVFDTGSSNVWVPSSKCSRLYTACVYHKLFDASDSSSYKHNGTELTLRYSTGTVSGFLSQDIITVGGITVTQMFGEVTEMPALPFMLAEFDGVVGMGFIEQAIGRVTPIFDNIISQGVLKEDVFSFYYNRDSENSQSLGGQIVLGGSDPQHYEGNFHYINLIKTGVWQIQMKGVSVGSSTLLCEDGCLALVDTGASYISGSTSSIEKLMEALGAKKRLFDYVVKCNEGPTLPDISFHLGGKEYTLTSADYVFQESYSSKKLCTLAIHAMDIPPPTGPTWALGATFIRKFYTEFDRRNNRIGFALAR
# Experiment: In Vitro Test With Pure Human Renin
# Type: biochemical
# Settings: human tetradecapeptide renin substrate (hTD), pH 7.4, 3 hours at 37° C. vs 4° C., angiotensin I by RIA
# Method: In Vitro Test With Pure Human Renin
# The test is carried out in Eppendorf test tubes. The incubation mixture consists of (1) 100 μl of human renin in buffer A (0.1M sodium phosphate solution, pH 7.4, containing 0.1% bovine serum albumin, 0.1% sodium azide and 1 mM ethylenediaminetetraacetic acid), sufficient for a renin activity of 2-3 ng of angiotensin I/ml/hr.; (2) 145 μl of buffer A; (3) 30 μl of 10 μM human tetradecapeptide renin substrate (hTD) in 10 mM hydrochloric acid; (4) 15 μl of dimethyl sulfoxide with or without inhibitor and (5) 10 μl of a 0.03 molar solution of hydroxyquinoline sulfate in water.
# The samples are incubated for 3 hours at 37° C. or 4° C. in triplicate. 2×100 μl samples per experimental test tube are used in order to measure the production of angiotensin I via RIA (standard radioimmunoassay; clinical assay solid phase kit). […] The production of angiotensin I in determined by the difference between the experiment at 37° C. and that at 4° C.
# The following controls are carried out:
# (a) Incubation of hTD samples without renin and without inhibitor at 37° C. and 4° C. The difference between these two values gives the base value of angiotensin I production.
# (b) Incubation of hTD samples with renin, but without inhibitor at 37° C. and 4° C. The difference between these values gives the maximal value of angiotensin I production.
# In each sample, the base value of the angiotensin I production is subtracted from the angiotensin I production which is determined. The difference between the maximal value and the base value gives the value of the maximal substrate hydrolysis (=100%) by renin.
# The IC50 values are determined from a linear regression curve from a logit-log plot.
row,Structure (SMILES),IC50 [nM]
1,"CC[C@@H](C[C@H](O)[C@H](CC1CCCCC1)NC(=O)[C@H](Cc1c[nH]cn1)NC(=O)[C@@H](CC(=O)[C@@H]1CCCN1C(=O)OC(C)(C)C)Cc1ccccc1)C(C)C [F, t-butyl (S)-2-[[(R)-α-[[(S)-1-[[(1S,2S,4S)-1-(cyclohexylmethyl)-2-hydroxy-4-isopropylhexyl]carbamoyl]-2-imidazol-4-ylethyl]carbamoyl]phenethyl]acetyl]-1-pyrrolidinecarboxylate]",4
2,C=C[C@@H](C[C@H](O)[C@H](CC1CCCCC1)NC(=O)[C@H](Cc1c[nH]cn1)NC(=O)CC(C)C)C(C)C [C],9
3,C=C[C@@H](C[C@H](O)[C@H](CC1CCCCC1)NC(=O)[C@H](Cc1c[nH]cn1)NC(=O)[C@@H](CC(=O)C(C)(C)C)Cc1ccccc1)C(C)C [L],7
4,"C=C[C@@H](C[C@H](O)[C@H](CC1CCCCC1)NC(=O)[C@H](Cc1c[nH]cn1)NC(=O)C(CC(=O)NCCN(CC(=O)OC(C)(C)C)C(=O)OC(C)(C)C)Cc1ccccc1)C(C)C (mixture of isomers) [Compound I, t-butyloxycarbonyl [2-[(R and S)-3-[[(S)-1-[[(1S,2S,4S)-1-(cyclohexylmethyl)-2-hydroxy-4-isopropyl-5-hexenyl]carbamoyl]-2-imidazol-4-ylethyl]-carbamoyl]-4-phenylbutyramido]ethyl]glycine t-butyl ester]",46
5,"CC[C@@H](C[C@H](O)[C@H](CC1CCCCC1)NC(=O)[C@H](Cc1c[nH]cn1)NC(=O)[C@@H](CC(=O)NC(C)(CO)CO)Cc1ccccc1)C(C)C [G, (S)-N-[(1S,2S,4S)-1-(cyclohexylmethyl)-2-hydroxy-4-isopropylhexyl]-α-[[[[(R)-α-2-hydroxy-1-(hydroxymethyl)-1-methylethyl]carbamoyl]methyl]hydrocinnamamido]imidazole-4-propionamide]",15
6,"CC[C@@H](C[C@H](O)[C@H](CC1CCCCC1)NC(=O)[C@H](Cc1c[nH]cn1)NC(=O)[C@H](Cc1ccccc1)NC(=O)OC(C)(C)C)C(C)C [E, t-butyl [(S)-α-[[(S)-1-[[(1S,2S,4S)-1-cyclohexylmethyl-2-hydroxy-4-isopropylhexyl]carbamoyl]-2-imidazol-4-ylethyl]carbamoyl]phenethyl]carbamate]",7.9
7,"C=C[C@@H](CC(O)[C@H](CC1CCCCC1)NC(=O)[C@H](Cc1c[nH]cn1)NC(=O)[C@H](Cc1ccccc1)NC(=O)[C@@H]1CCCN1C(=O)[C@H]1CCCN1C(=O)OC(C)(C)C)C(C)C (stereo partly drawn) [R, (2S,5S)-2-(Boc--D--Pro--Pro--Phe--His--NH)-1-cyclohexyl-5-isopropyl-6-hepten-3-ol] (Boc-[dP]PFH-X1)",1.7
8,C=C[C@@H](C[C@H](O)[C@H](CC1CCCCC1)NC(=O)[C@H](Cc1c[nH]cn1)NC(=O)[C@H](Cc1ccccc1)NC(=O)N1CCOCC1)C(C)C [M],21
9,CC[C@@H](C[C@H](O)[C@H](CC1CCCCC1)NC(=O)[C@H](Cc1c[nH]cn1)NC(=O)C(CC(=O)C1CCCC1)Cc1ccccc1)C(C)C (mixture of isomers) [Q],68
10,CC[C@@H](C[C@H](O)[C@H](CC1CCCCC1)NC(=O)[C@H](Cc1c[nH]cn1)NC(=O)C(CC(=O)N1CCOCC1)Cc1cccc2ccccc12)C(C)C (some centres unmarked) [H],4.1
11,"C=C[C@@H](C[C@H](O)[C@H](CC1CCCCC1)NC(=O)[C@H](Cc1c[nH]cn1)NC(=O)[C@H](Cc1ccccc1)NC(=O)[C@H]1CCCN1C(=O)OC(C)(C)C)C(C)C [B, (2S,3S,5S)-2-(Boc--D--Pro--Phe--His--NH)-1-cyclohexyl-5-isopropyl-6-hepten-3-ol]",0.3
12,CC[C@@H](C[C@H](O)[C@H](CC1CCCCC1)NC(=O)[C@H](Cc1c[nH]cn1)NC(=O)[C@H](Cc1ccccc1)NC(=O)[C@H]1CCCN1C(=O)OC(C)(C)C)C(C)C [A],3.5

# Second part, the molecule after the results:
row,IC50 [nM],Structure (SMILES)
1,7.5,"C=C[C@@H](C[C@H](O)[C@H](CC1CCCCC1)NC(=O)[C@H](Cc1c[nH]cn1)NC(=O)[C@H](Cc1ccccc1)NC(=O)OC(C)(C)C)C(C)C [D, t-butyl [(S)-α-[[(S)-1-[[(1S,2S,4S)-1-cyclohexylmethyl-2-hydroxy-4-isopropyl-5-hexenyl]carbamoyl]-2-imidazol-4-ylethyl]carbamoyl]phenethyl]carbamate]"
2,12,"C=C[C@@H](C[C@H](O)[C@H](CC1CCCCC1)NC(=O)[C@H](Cc1c[nH]cn1)NC(=O)[C@@H](CC(=O)N(C)C)Cc1ccccc1)C(C)C [O, (S)-N-[(1S,2S,4S)-1-(cyclohexylmethyl)-2-hydroxy-4-isopropyl-5-hexenyl]-α-[(R)-α-[(dimethylcarbamoyl)-methyl]hydrocinnamamido]imidazole-4-propionamide]"
3,140,"C=C[C@@H](C[C@H](O)[C@H](CC1CCCCC1)NC(=O)[C@H](Cc1c[nH]cn1)NC(=O)[C@@H](CC(N)=O)Cc1ccccc1)C(C)C [N, (S)-α-[(R)-α-(carbamoylmethyl)hydrocinnamamido]-N-[(1S,2S,4S)-1-(cyclohexylmethyl)-2-hydroxy-4-isopropyl-5-hexenyl]imidazole-4-propionamide]"
4,17,"C=C[C@@H](C[C@H](O)[C@H](CC1CCCCC1)NC(=O)[C@H](Cc1c[nH]cn1)NC(=O)[C@@H](CC(=O)NC(C)(CO)CO)Cc1ccccc1)C(C)C [K, (S)-N-[(1S,2S,4S)-1-(cyclohexylmethyl)-2-hydroxy-4-isopropyl-5-hexenyl]-α-[(R)-α-[[[2-hydroxy-1-(hydroxymethyl)-1-methylethyl]carbamoyl]methyl]hydrocinnamamido]imidazole-4-propionamide]"
5,46,"C=C[C@@H](C[C@H](O)[C@H](CC1CCCCC1)NC(=O)[C@H](Cc1c[nH]cn1)NC(=O)C(CC(=O)C1CCCC1)Cc1ccccc1)C(C)C (mixture of isomers) [P, (S)-N-[(1S,2S,4S)-1-(cyclohexylmethyl)-2-hydroxy-4-isopropyl-5-hexenyl]-α-[(RS)-α-[(cyclopentyl-carbonyl)methyl]hydrocinnamamido]imidazole-4-propionamide]"
